Assay results published in BindingDB's records for doi:10.7270/Q2RR233C (D3R/Abbott, 2020).
Where “and” joins values, the source holds several entries; their conditions need not be identical. Equal entries are not always repeated.

Biological target: Tyrosine-protein kinase ABL1 (Homo sapiens, UniProt P00519)
Experiment: D3R2026
Description: D3R2026

Chain of Tyrosine-protein kinase ABL1 (P00519 whole entry): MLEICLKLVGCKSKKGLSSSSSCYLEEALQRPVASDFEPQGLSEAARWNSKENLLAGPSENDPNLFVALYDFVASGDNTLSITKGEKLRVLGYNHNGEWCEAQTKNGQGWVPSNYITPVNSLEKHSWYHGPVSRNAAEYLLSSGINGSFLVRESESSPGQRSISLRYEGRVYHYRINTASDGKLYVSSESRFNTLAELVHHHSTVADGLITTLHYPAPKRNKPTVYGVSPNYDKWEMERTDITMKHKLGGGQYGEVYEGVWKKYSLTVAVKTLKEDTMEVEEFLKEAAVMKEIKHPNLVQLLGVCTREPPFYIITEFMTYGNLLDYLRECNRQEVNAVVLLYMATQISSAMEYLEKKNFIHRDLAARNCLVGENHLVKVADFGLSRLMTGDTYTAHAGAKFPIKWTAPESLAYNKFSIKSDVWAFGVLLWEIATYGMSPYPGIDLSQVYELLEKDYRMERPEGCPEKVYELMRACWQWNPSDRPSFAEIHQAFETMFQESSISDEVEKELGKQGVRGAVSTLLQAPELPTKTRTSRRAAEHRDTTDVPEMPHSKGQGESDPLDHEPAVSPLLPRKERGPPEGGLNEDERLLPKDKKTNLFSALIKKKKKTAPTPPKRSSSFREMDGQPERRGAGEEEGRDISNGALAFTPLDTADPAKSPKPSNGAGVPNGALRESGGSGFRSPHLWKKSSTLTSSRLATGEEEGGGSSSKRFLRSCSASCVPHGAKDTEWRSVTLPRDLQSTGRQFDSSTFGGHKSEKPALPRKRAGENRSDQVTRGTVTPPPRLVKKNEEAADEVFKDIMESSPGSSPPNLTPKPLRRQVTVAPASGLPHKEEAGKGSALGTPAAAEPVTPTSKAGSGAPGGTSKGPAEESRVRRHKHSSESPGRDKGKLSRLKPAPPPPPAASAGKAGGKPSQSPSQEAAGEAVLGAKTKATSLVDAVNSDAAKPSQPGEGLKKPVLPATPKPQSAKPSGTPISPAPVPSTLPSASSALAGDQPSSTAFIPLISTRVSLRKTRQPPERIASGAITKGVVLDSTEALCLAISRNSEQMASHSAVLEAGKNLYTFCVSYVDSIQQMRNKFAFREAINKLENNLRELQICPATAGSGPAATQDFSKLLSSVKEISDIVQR

SMILES: CCOC(=O)N1CCC(n2cnc(-c3ccc(F)cc3)c2-c2ccnc(N)n2)CC1 [4-[5-(2-Amino-pyrimidin-4-yl)-4-(4-fluoro-phenyl)-imidazol-1-yl]-piperidine-1-carboxylic acid ethyl ester]
- Kd: 4.8 µM and 10 µM and 2.2 µM and 5.4 µM
